Measurements: patent US9469615B2, “Quinoxalines and AZA-quinoxalines as CRTH2 receptor modulators” (Merck Sharp & Dohme Corp., priority 2010, dated 2016)
pKi: −log10 of the molar value.

Target: T1, hCRTH2 (Homo sapiens, UniProt Q9Y5Y4)
T1 construct: expressed in transfected cells; host or cells: HEK (human embryonic kidney) cells expressing hCRTH2; membrane preparation
T1 sequence (Q9Y5Y4 1-395): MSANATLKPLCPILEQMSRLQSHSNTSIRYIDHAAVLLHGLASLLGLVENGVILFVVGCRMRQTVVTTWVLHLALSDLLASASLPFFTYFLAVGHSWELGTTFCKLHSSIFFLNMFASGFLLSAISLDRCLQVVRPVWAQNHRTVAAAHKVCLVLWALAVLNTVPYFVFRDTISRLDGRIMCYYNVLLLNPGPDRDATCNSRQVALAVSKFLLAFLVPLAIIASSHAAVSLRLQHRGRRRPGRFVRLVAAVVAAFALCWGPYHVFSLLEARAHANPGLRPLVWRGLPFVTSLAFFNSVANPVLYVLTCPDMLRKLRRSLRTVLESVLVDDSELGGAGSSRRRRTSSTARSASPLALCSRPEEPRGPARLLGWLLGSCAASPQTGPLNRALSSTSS
Assay: Radioligand binding assay ([3H]PGD2 competition, HEK-hCRTH2 membranes)
Details: [3H]PGD2 competition, Table B
Procedure, shortened: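 HEK-hCRTH2 membranes, 8-20 μg; [3H]PGD2 3.0 nM; 50 mM Tris-HCl pH 7.4/1 mM EDTA/2 mM MnCl2; DMSO 1%; 60 min RT; NSB 10 μM PGD2; filtration, scintillation counting.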

Structure (SMILES)	pKi
O=C(O)Cc1cccc(CCCc2nc3cc(C(=O)N4CCN(c5ccccc5)CC4)ccc3nc2-c2ccc(Cl)cc2)c1 [compound 543, 2-(3-(3-(3-(4-chlorophenyl)-7-(4-phenylpiperazine-1-carbonyl)quinoxalin-2-yl)propyl)phenyl)acetic acid]	6.70 to 7.70
CN(Cc1ccc(F)cc1)C(=O)c1ccc2nc(-c3ccc(Cl)cc3)c(CCCc3cccc(CC(=O)O)c3)nc2c1 [compound 544, 2-(3-(3-(3-(4-chlorophenyl)-7-((4-fluorobenzyl) (methyl)carbamoyl)quinoxalin-2-yl)propyl)phenyl)acetic acid]	6.70 to 7.70
C[C@@H](NC(=O)c1ccc2nc(-c3ccc(Cl)cc3)c(CCCc3cccc(CC(=O)O)c3)nc2c1)c1ccc(F)cc1 [compound 545, (R)-2-(3-(3-(3-(4-chlorophenyl)-7-((1-(4-fluorophenyl)ethyl)carbamoyl)quinoxalin-2-yl)propyl)phenyl)acetic acid]	6.15 to 6.70
O=C(O)Cc1cccc(CCCc2nc3cc(C(=O)NCc4ccc(Cl)cc4)ccc3nc2-c2ccc(Cl)cc2)c1 [compound 546, 2-(3-(3-(7-((4-chlorobenzyl)carbamoyl)-3-(4-chlorophenyl)quinoxalin-2-yl)propyl)phenyl) acetic acid]	6.70 to 7.70
O=C(N[C@@H]1CCOc2ccccc21)c1ccc2nc(-c3ccc(F)cc3)c(CCCC(F)(F)C(=O)O)nc2c1 [compound 547]	6.70 to 7.70
O=C(N[C@H]1CCOc2ccccc21)c1ccc2nc(-c3ccc(F)cc3)c(CCCC(F)(F)C(=O)O)nc2c1 [compound 548, (S)-5-(7-(chroman-4-ylcarbamoyl)-3-(4-fluorophenyl)quinoxalin-2-yl)-2,2-difluoro-pentanoic acid]	6.15 to 6.70
C[C@H]1CN(c2ccc(Cl)cc2)CCN1C(=O)c1ccc2nc(-c3ccccc3)c(CCCCC(=O)O)nc2c1 [compound 551, (S)-5-(7-(4-(4-chlorophenyl)-2-methylpiperazine-1-carbonyl)-3-phenyl-quinoxalin-2-yl)pentanoic acid]	7.70 to 8.68
O=C(O)CCCCc1nc2cc(C(=O)N3CCN(c4ncccn4)CC3)ccc2nc1-c1ccc(Cl)cc1 [compound 552, 5-(3-(4-chlorophenyl)-7-(4-(pyrimidin-2-yl)piperazine-1-carbonyl)quinoxalin-2-yl)pentanoic acid]	7.70 to 8.68
O=C(O)CCCCc1nc2cc(C(=O)N3CCN(c4ccccc4)C(=O)C3)ccc2nc1-c1ccc(Cl)cc1 [compound 553, 5-(3-(4-chlorophenyl)-7-(3-oxo-4-phenylpiperazine-1-carbonyl)quinoxalin-2-yl)pentanoic acid]	7.70 to 8.68
O=C(O)CCCCc1nc2cc(C(=O)N3CCN(c4ccccn4)CC3)ccc2nc1-c1ccc(Cl)cc1 [compound 554, 5-(3-(4-chlorophenyl)-7-(4-(pyridin-2-yl)piperazine-1-carbonyl)quinoxalin-2-yl)pentanoic acid]	7.70 to 8.68
O=C(O)CCCCc1nc2cc(C(=O)N3CCN(Cc4ccccc4)CC3)ccc2nc1-c1ccc(Cl)cc1 [compound 555, 5-(7-(4-benzylpiperazine-1-carbonyl)-3-(4-chlorophenyl)quinoxalin-2-yl)pentanoic acid]	7.70 to 8.68
CC1(C)CCC(NC(=O)c2ccc3nc(-c4ccc(Cl)cc4)c(CCCCC(=O)O)nc3c2)c2ccccc21 (stereo not drawn) [compound 556]	7.70 to 8.68
O=C(O)CCCCc1nc2cc(C(=O)N3CCc4cc(F)ccc4C3)ccc2nc1-c1ccc(Cl)cc1 [compound 557, 5-(3-(4-chlorophenyl)-7-(6-fluoro-1,2,3,4-tetrahydroisoquinoline-2-carbonyl)quinoxalin-2-yl)pentanoic acid]	7.70 to 8.68
CC1(C)c2ccc(F)cc2CN1C(=O)c1ccc2nc(-c3ccc(Cl)cc3)c(CCCCC(=O)O)nc2c1 [compound 558, 5-(3-(4-chlorophenyl)-7-(5-fluoro-1,1-dimethylisoindoline-2-carbonyl)quinoxalin-2-yl)pentanoic acid]	7.70 to 8.68
CC1(C)CC(NC(=O)c2ccc3nc(-c4ccc(Cl)cc4)c(CCCCC(=O)O)nc3c2)c2ccccc2O1 (stereo not drawn) [compound 564, 5-(3-(4-chlorophenyl)-7-((2,2-dimethylchroman-4-yl)carbamoyl)quinoxalin-2-yl)pentanoic acid]	7.70 to 8.68
O=C(O)CCCCc1nc2cc(C(=O)NC3C(=O)Nc4ccccc43)ccc2nc1-c1ccc(Cl)cc1 (stereo not drawn) [compound 566, 5-(3-(4-chlorophenyl)-7-((2-oxoindolin-3-yl)carbamoyl)quinoxalin-2-yl)pentanoic acid]	7.70 to 8.68
O=C(O)CCCCc1nc2cc(C(=O)N3CCC4(CC3)Cc3ccccc3C(=O)N4)ccc2nc1-c1ccc(Cl)cc1 [compound 568, 5-(3-(4-chlorophenyl)-7-(1-oxo-2,4-dihydro-1H-spiro[isoquinoline-3,4′-piperidin]-1′-ylcarbonyl)quinoxalin-2-yl)pentanoic acid]	7.70 to 8.68
O=C(O)CCCCc1nc2cc(C(=O)N[C@@H]3CCCCc4ccccc43)ccc2nc1-c1ccc(Cl)cc1 [compound 570, (R)-5-(3-(4-chlorophenyl)-7-((6,7,8,9-tetrahydro-5H-benzo[7]annulen-5-yl)carbamoyl)quinoxalin-2-yl)pentanoic acid]	7.70 to 8.68
C[C@H](NC(=O)c1ccc2nc(-c3ccc(F)cc3)c(CCCCC(=O)O)nc2c1)c1ccc(F)c2ccccc12 [compound 571, (S)-5-(7-((1-(4-fluoronaphthalen-1-yl)ethyl)carbamoyl)-3-(4-fluorophenyl)quinoxalin-2-yl)pentanoic acid]	7.70 to 8.68
C[C@@H](NC(=O)c1ccc2nc(-c3ccc(F)cc3)c(CCCCC(=O)O)nc2c1)c1ccc(F)c2ccccc12 [compound 572, (R)-5-(7-((1-(4-fluoronaphthalen-1-yl)ethyl)carbamoyl)-3-(4-fluorophenyl)quinoxalin-2-yl)pentanoic acid]	6.70 to 7.70
O=C(O)CCCCc1nc2cc(C(=O)N[C@@H]3COc4ccccc43)ccc2nc1-c1ccccc1 [compound 573, (S)-5-(7-((2,3-dihydrobenzofuran-3-yl)carbamoyl)-3-phenylquinoxalin-2-yl)pentanoic acid]	7.70 to 8.68
O=C(O)CCCCc1nc2cc(C(=O)N[C@H]3COc4ccccc43)ccc2nc1-c1ccccc1 [compound 574, (R)-5-(7-((2,3-dihydrobenzofuran-3-yl)carbamoyl)-3-phenylquinoxalin-2-yl)pentanoic acid]	7.70 to 8.68

More lines, now with the values ahead:

pKi	Structure (SMILES)
7.70 to 8.68	C[C@H]1CN(c2ccc(Cl)cc2)CCN1C(=O)c1ccc2nc(-c3ccc(F)cc3)c(CCCCC(=O)O)nc2c1 [compound 542, (S)-5-(7-(4-(4-chlorophenyl)-2-methylpiperazine-1-carbonyl)-3-(4-fluorophenyl)quinoxalin-2-yl)pentanoic acid]
7.70 to 8.68	C[C@H]1CN(c2ccccc2)CCN1C(=O)c1ccc2nc(-c3ccccc3)c(CCCCC(=O)O)nc2c1 [compound 549, (S)-5-(7-(2-methyl-4-phenylpiperazine-l-carbonyl)-3-phenylquinoxalin-2-yl)pentanoic acid]
7.70 to 8.68	C[C@@H]1CN(c2ccc(Cl)cc2)CCN1C(=O)c1ccc2nc(-c3ccccc3)c(CCCCC(=O)O)nc2c1 [compound 550, (R)-5-(7-(4-(4-chlorophenyl)-2-methylpiperazine-1-carbonyl)-3-phenyl-quinoxa1in-2-yl)pentanoic acid]
8.70 to 10.00	O=C(O)CCCCc1nc2cc(C(=O)N3CC[C@H](c4ccc(F)cc4)C3)ccc2nc1-c1ccc(Cl)cc1 [compound 559, (R)-5-(3-(4-chlorophenyl)-7-(3-(4-fluorophenyl)pyrrolidine-1-carbonyl)quinoxalin-2-yl)pentanoic acid]
8.70 to 10.00	O=C(O)CCCCc1nc2cc(C(=O)N3CC[C@@H](c4ccc(F)cc4)C3)ccc2nc1-c1ccc(Cl)cc1 [compound 560, (S)-5-(3-(4-chlorophenyl)-7-(3-(4-fluorophenyl)pyrrolidine-1-carbonyl)quinoxalin-2-yl)pentanoic acid]
8.70 to 10.00	O=C(O)CCCCc1nc2cc(C(=O)NC3CCCOc4ccccc43)ccc2nc1-c1ccc(Cl)cc1 (stereo not drawn) [compound 561, 5-(3-(4-chlorophenyl)-7-((2,3,4,5-tetrahydrobenzo[b]oxepin-5-yl)carbamoyl)quinoxalin-2-yl)pentanoic acid]
8.70 to 10.00	O=C(O)CCCCc1nc2cc(C(=O)N[C@H]3COc4ccccc43)ccc2nc1-c1ccc(Cl)cc1 [compound 562, (R)-5-(3-(4-chlorophenyl)-7-((2,3-dihydrobenzofuran-3-yl)carbamoyl)quinoxalin-2-yl)pentanoic acid]
8.70 to 10.00	O=C(O)CCCCc1nc2cc(C(=O)N[C@@H]3COc4ccccc43)ccc2nc1-c1ccc(Cl)cc1 [compound 563, (S)-5-(3-(4-chlorophenyl)-7-((2,3-dihydrobenzofuran-3-yl)carbamoyl)quinoxalin-2-yl)pentanoic acid]
8.70 to 10.00	O=C(O)CCCCc1nc2cc(C(=O)N3CCC4(CCCc5ccccc54)C3)ccc2nc1-c1ccc(Cl)cc1 (stereo not drawn) [compound 565, 5-(3-(4-chlorophenyl)-7-(3,4-dihydro-2H-spiro [naphthalene-1,3′-pyrrolidin]-1′-ylcarbonyl)quinoxalin-2-yl)pentanoic acid]
8.70 to 10.00	O=C(O)CCCCc1nc2cc(C(=O)N3CCC4(CC3)NC(=O)Cc3ccccc34)ccc2nc1-c1ccc(Cl)cc1 [compound 567]
8.70 to 10.00	O=C(O)CCCCc1nc2cc(C(=O)N[C@@H]3CCSc4ccccc43)ccc2nc1-c1ccc(Cl)cc1 [compound 569, (R)-5-(3-(4-chlorophenyl)-7-(thiochroman-4-ylcarbamoyl)quinoxalin-2-yl)pentanoic acid]
